# Source: PubChem BioAssay AID651818 (Broad Institute, 2012)
# Inconclusive results are not listed.
# Tested on: intracellular Trypanosoma cruzi in host cells, plate reader
# Test: intracellular Trypanosoma cruzi inhibitors in host cells – cell-based, plate reader, cherry-pick samples, set 3, dose response (AID 651818)
smiles,measurement,value
C[C@@H]1CN([C@@H](C)CO)C(=O)c2cccc(NC(=O)c3ccncc3)c2O[C@H]1CN(C)Cc1ccc(Oc2ccccc2)cc1,AC50,< 75 nM
